The source of these data is US6528653B2, “Thienopyrrolidinones” (Hoffmann-La Roche, Inc., priority 2000, dated 2003).

The assay concerns LPS-induced TNF-α production in THP-1 cells. Briefly: Inhibition of LPS-induced TNF-α production in THP-1 cells (TNF-α ELISA). The format is cell-based. To be noted: Homo sapiens, 30 min preincubation with compound, LPS 4 hours, TNF-α in supernatant by ELISA, percentage of DMSO control. The protocol:
The assay uses a modification of the methods described in Blifield et al., Transplantation, 51:498-503 (1991).
(a) Induction of TNF Biosynthesis
THP-1 cells were suspended in serum free culture medium LGM-3 (Clonetics, Bio Whittaker, UK, Cat. No. CC-3211), at a concentration of 5×10^5 cells/ml and then plated in 96 well-plates (0.2 ml aliquots in each well). Test compounds were dissolved in DMSO and then diluted with the culture medium such that the final DMSO concentration was 1%. Twenty five μl aliquots of test solution or only medium with DMSO (control) were added to each well giving a final DMSO concentration of 0.1%. The cells were incubated for 30 min. at 37° C. LPS (Sigma Chemical Company, UK) was added to the wells at a final concentration of 2 μg/nml, and cells were incubated for an additional 4 hours. At the end of the incubation period, culture supernatants were collected and the amount of TNF-α present was determined using a commercial TNF-α ELISA assay as described below.
(b) ELISA Assay. Quantikine™ human TNF-α (R&D Systems Europe Ltd., UK) (Cat. No. DTA50 in 2000)
The assay was carried out according to the manufacturer's instructions with the following modifications. Assay plates were centrifuged at 200 g and a 200 μl sample added to each well. TNF-α standard was made up and diluted in LGM-3 culture medium. Samples in the ELISA plate were then incubated overnight at 4° C. instead of 2 hours at 37° C. TNF-α production for each condition was calculated and expressed as a percentage of DMSO control to enable IC50 calculation.

For `O=C1Nc2sccc2/C1=C/c1ccc[nH]1` [Example 1, (Z)-4,6-Dihydro-4-[(1H-pyrrol-2yl)methylene]thieno[2,3-b]pyrrol-5-one], the IC50 worked out at 5080 nM.

Consider `N#Cc1cc2c(s1)NC(=O)/C2=C\c1ccc[nH]1` [Example 20, (Z)-5,6-Dihydro-5-oxo-4-[(1H-pyrrol-2-yl)methylene]-4H-thieno[2,3-b]pyrrole-2-carbonitrile], for which the IC50 stood at 3690 nM.

With `O=C1Nc2sccc2/C1=C/c1c[nH]nc1-c1ccccc1` [Example 9, (Z)-4,6-Dihydro-4-[(3-phenyl-1H-pyrazol-4-yl)methylene]-thieno[2,3-b]pyrrol-5-one], the IC50 is 1100 nM.

As for `COc1cc[nH]c1/C=C1\C(=O)Nc2sccc21` [Example 13, (Z)-4,6-Dihydro-4-[(3-methoxy-1H-pyrrol-2-yl)methylene]-thieno[2,3-b]pyrrol-5-one], the IC50 came to 1590 nM.
